In patent US11879145B2, “Reagents and methods for replication, transcription, and translation in semi-synthetic organisms” (The Scripps Research Institute, priority 2019, dated 2024):
“Also recorded” adds a separate entry of the source.

Assays:
sfGFP^151(AXC) [1] = test: In vivo translation screen of XTPs/YTPs: protein shift (AzK incorporation) by DBCO-TAMRA western blot; type: cell-based, E. coli; settings: TPT3TP 30 μM, dCNMO-dTPT3 UBP, strain ML2
Experimental: (§1) In vivo Translation Screen of XTPs/YTPs. An overnight culture of the SSO strain ML2 carrying the pGEX-MbPylRS TetR plasmid was grown in 2×YT supplemented with 50 mM potassium phosphate, […] chloramphenicol and 100 μg/mL carbenicillin (herein referred to in this section as “media”), then diluted back to an OD600 of 0.03 in the same media and grown to an OD600 of 0.4 to 0.6. The culture was then chilled with shaking over ice-water for 15 minutes then pelleted by centrifugation at 3,200×g for 10 min. Cells were then resuspended and washed with ice-cold ddH2O twice then resuspended in ice-cold ddH2O to OD600 of 55-65. The electrocompetent cells (50 μL) and 1 ng of Golden Gate assembled plasmid with the UBP within the sfGFP and tRNAPyl genes (see Golden Gate Assembly of Plasmids) were transferred to a pre-chilled electroporation cuvette (0.2-cm-gap), then electroporated (Gene Pulser II; Bio-Rad) according to manufacturer's recommendations (voltage […], capacitor 2.5 μF, resistor 200Ω), and then immediately diluted with 950 μL of media. An aliquot (40 μL) of the transformation was then diluted five-fold in media supplemented with dCNMOTP (25 μM) and dTPT3TP (10 μM) for a final volume of 200 μL then allowed to recover for 1 h shaking at 37° C. Two-fold dilutions of the recovery were plated onto solid media supplemented with zeocin (50 μg/mL), dCNMOTP (10 μM), dTPT3TP (10 μM), and agar (2% w/v), then grown at 37° C. for 18 h. Single colonies were picked and grown in media (300 μL) supplemented with 50 μg/mL zeocin and provided dCNMOTP (25 μM) and dTPT3TP (10 μM) (herein afterward referred to in this section as “growth media”). The culture was monitored for cell growth (Envision 2103 Multilabel Plate Reader with a 590/20 nm filter) and then collected at an OD600˜1.0. An aliquot (50 μL) was subjected to plasmid isolation using the ZR Plasmid Prep Kit (Zymo Research). Isolated plasmids were then subjected to the streptavidin gel shift assay described below (using primers P3-4 and P5-6, Table S1) to determine UBP retention.
(§2) A colony with excellent UBP retention was then diluted to an OD600˜0.01 in growth media and grown to OD600˜0.4-0.6. This culture was then divided into multiple 300 μL cultures and for the screen of XTP analogs, each was provided with the corresponding XTP (at either 25 μM or 250 μM) or ddH2O for “−XTP” samples, TPT3TP (30 μM), and AzK (10 mM). For the screen of YTP analogs, each 300 μL culture was provided with the corresponding YTP (at either 25 μM or 250 μM) or ddH2O for “−YTP” samples, NaMTP (250 μM), and AzK (10 mM). Samples were shielded from light after addition of AzK to prevent photodegradation. These samples were then grown at 37° C. for 20 min before adding 1 mM IPTG and grown at 37° C. for an additional 1 h to induce T7 RNAP and transcription of tRNAPyl and PylRS. From this point on, cells were monitored for growth and fluorescence. Expression of sfGFP was then induced with anhydrotetracycline (100 ng/mL). After an additional 3 h of growth at 37° C., cells were collected (230 μL for affinity purification of sfGFP), cooled, and then pelleted and stored at −80° C. before protein purification.
Affinity Purification of sfGFP. Cell pellets collected from translation experiments were resuspended in BugBuster (100 μL 1×, EMD Millipore) and shaken at room temperature for 15 min. […]

E. coli strain ML2 = test: Cell growth (OD600) / toxicity of unnatural ribonucleoside triphosphates under ribonucleotide screening conditions; type: cell-based; settings: for OD600: after 3 h of protein induction; for Cell growth / toxicity: YTP at the higher concentration (250 μM)
Experimental: In vivo Translation Screen of XTPs/YTPs. An overnight culture of the SSO strain ML2 carrying the pGEX-MbPylRS TetR plasmid was grown in 2×YT supplemented with 50 mM potassium phosphate, […] chloramphenicol and 100 μg/mL carbenicillin (herein referred to in this section as “media”), then diluted back to an OD600 of 0.03 in the same media and grown to an OD600 of 0.4 to 0.6. The culture was then chilled with shaking over ice-water for 15 minutes then pelleted by centrifugation at 3,200×g for 10 min. Cells were then resuspended and washed with ice-cold ddH2O twice then resuspended in ice-cold ddH2O to OD600 of 55-65. The electrocompetent cells (50 μL) and 1 ng of Golden Gate assembled plasmid with the UBP within the sfGFP and tRNAPyl genes (see Golden Gate Assembly of Plasmids) were transferred to a pre-chilled electroporation cuvette (0.2-cm-gap), then electroporated (Gene Pulser II; Bio-Rad) according to manufacturer's recommendations (voltage […], capacitor 2.5 μF, resistor 200Ω), and then immediately diluted with 950 μL of media. […] Two-fold dilutions of the recovery were plated onto solid media supplemented with zeocin (50 μg/mL), dCNMOTP (10 μM), dTPT3TP (10 μM), and agar (2% w/v), then grown at 37° C. for 18 h. […] An aliquot (50 μL) was subjected to plasmid isolation using the ZR Plasmid Prep Kit (Zymo Research). Isolated plasmids were then subjected to the streptavidin gel shift assay described below (using primers P3-4 and P5-6, Table S1) to determine UBP retention.
Samples were shielded from light after addition of AzK to prevent photodegradation. These samples were then grown at 37° C. for 20 min before adding 1 mM IPTG and grown at 37° C. for an additional 1 h to induce T7 RNAP and transcription of tRNAPyl and PylRS. From this point on, cells were monitored for growth and fluorescence. Expression of sfGFP was then induced with anhydrotetracycline (100 ng/mL).
Examining the Toxicity of Ribonucleoside Triphosphates. An overnight culture of ML2 was grown in 2×YT media supplemented with 50 mM potassium phosphate and chloramphenicol (5 μg/mL), referred to throughout this section as “media”. This culture was diluted back to an OD600 of 0.01 split into multiple 300 μL cultures, each supplemented with varying concentrations of TPT3TP, TAT1TP, NaMTP, or 5FMTP, along with a no triphosphate control. The cultures were then incubated at 37° C. with shaking at 230 rpm. […] OD600 was then plotted as a function of time for each nucleotide at each concentration to visualize differences in growth rates.

sfGFP^151(AXC) [2] = test: Optimization of unnatural ribonucleotide triphosphate concentrations (sfGFP fluorescence and protein shift); type: cell-based, E. coli
Experimental: Examples 1A, 1B, and 2 identified dCNMO-dTPT3 as a competent UBP for the storage of information, and TAT1TP and NaMTP or 5FMTP as competent ribonucleoside triphosphates for its retrieval. Upon transformation with the same plasmids used above, 10 μM dTPT3TP and 25 μM dCNMOTP were provided in the growth media, which was then also supplemented with TAT1TP at concentrations ranging from 100 μM to 12.5 μM, and either NaMTP or 5FMTP at concentrations ranging from 200 μM to 12.5 μM, all in series of 2-fold dilutions, and after the addition of 1 mM AzK, the cells were induced to express sfGFP. […] In both cases, fluorescence was higher at lower concentrations of NaMTP or 5FMTP (due to increased production of contaminating natural sfGFP, see below). Additionally, cells generally produced higher fluorescence at higher concentrations of TAT1TP. […] Protein production was again quantified via the gel shift assay (FIG. 6C and FIG. 6D). Generally, as the concentration of NaMTP decreased below 200 μM, incrementally lower fidelity of AzK incorporation into sfGFP was observed, while with use of 5FMTP this reduction in fidelity was only observed below a concentration of 50 μM. Clearly lower concentrations of 5FMTP can be used without compromising fidelity. Cells provided with a high concentration of 5FMTP (≥50 µM) produced high protein shifts at all concentrations of TAT1TP explored (100 μM, 50 μM, 25 μM, or 12.5 μM).
Optimization of in vivo Translation Conditions. An overnight culture of the SSO strain ML2 carrying the pGEX-MbPylRS TetR plasmid was grown in 2×YT supplemented with 50 mM potassium phosphate, […] chloramphenicol and 100 μg/mL carbenicillin (herein referred to in this section as “media”), then diluted back to an OD600 of 0.03 in the same media and grown to an OD600 of 0.4-0.6. The culture was then chilled with shaking over ice-water for 15 min then pelleted by centrifugation at 3,200×g for 10 min. Cells were then resuspended and washed with ice-cold ddH2O twice then resuspended in ice-cold ddH2O to an OD600 of 55-65. The electrocompetent cells (50 μL) and ˜1 ng of Golden Gate assembled plasmid with the UBP within the sfGFP and tRNAPyl genes (see Golden Gate Assembly of Plasmids) were transferred to a pre-chilled electroporation cuvette (0.2-cm-gap), then electroporated (Gene Pulser II; Bio-Rad) according to manufacturer's recommendations (voltage […], capacitor 2.5 μF, resistor 200Ω), and then immediately diluted with 950 μL of media. […] The culture was monitored for cell growth (Envision 2103 Multilabel Plate Reader with a 590/20 nm filter) and then collected at an OD600˜1.0. […]

sfGFP^151(AXC) [3] = test: In vivo translation screen of XTPs/YTPs: total sfGFP fluorescence; type: cell-based, E. coli
Experimental: as §1, §2
An SAR analysis was initiated with NaMTP and the nine XTP analogs. Based on performance in the dXTP screen described above, and to eliminate variable loss at the DNA level as a complicating factor, the unnatural information was encoded with the dCNMO-dTPT3 UBP. Additionally, the E. coli strain ML2, which expresses the nucleoside triphosphate transporter PtNTT2, but has also been genetically engineered for higher fidelity replication of the UBP by deletion of the gene encoding RecA (as is common in cloning strains) and overexpression of DNA Pol II was used. The same plasmid described above in Examples 1A and 1, harboring sfGFP^151(AXC) and tRNA^Pyl(GYT), was used, and to focus the screen to a single unnatural ribonucleotide, the M. mazei Pyl tRNA was transcribed in the presence of 30 μM TPT3TP. […]

COc1ccc(F)cc1[C@@H]1O[C@H](COP(=O)(O)OP(=O)(O)OP(=O)(O)O)[C@@H](O)[C@H]1O [Compound 5F2OMeTP]
sfGFP protein gel shift (ncAA incorporation) (sfGFP^151(AXC) [1]; XTP 250 μM): 94% | OD600 (E. coli strain ML2; XTP 25 μM): 1.14 ± 0.05 | OD600 (E. coli strain ML2; XTP 250 μM): 1.16 ± 0.07

COc1cc2ccccc2cc1[C@@H]1O[C@H](COP(=O)(O)OP(=O)(O)OP(=O)(O)O)[C@@H](O)[C@H]1O [NaMTP]
Concentration for combined optimization of protein purity and yield (sfGFP^151(AXC) [2]; NaMTP and TAT1TP pair): 200 µM | XTP concentration below which lower fidelity of AzK incorporation into sfGFP was observed (sfGFP^151(AXC) [2]; with TAT1TP 12.5-100 μM): 200 µM | sfGFP protein gel shift (ncAA incorporation) (sfGFP^151(AXC) [1]; XTP 25 μM): 86% | sfGFP protein gel shift (ncAA incorporation) (sfGFP^151(AXC) [1]; XTP 250 μM): 98%

O=P(O)(O)OP(=O)(O)OP(=O)(O)OC[C@H]1O[C@@H](n2ccc3ccccc3c2=S)[C@H](O)[C@@H]1O [SICSTP]
OD600 (E. coli strain ML2; YTP 25 μM): 1.25 ± 0.10 | OD600 (E. coli strain ML2; YTP 250 μM): 0.90 ± 0.04 | Cell growth / toxicity (E. coli strain ML2): at least slightly toxic

O=P(O)(O)OP(=O)(O)OP(=O)(O)OC[C@H]1O[C@@H](n2ccc3ccsc3c2=S)[C@H](O)[C@@H]1O [TPT3TP]
Toxicity (E. coli strain ML2; YTP at lower concentrations (25 μM)): somewhat less toxic | Cell growth / toxicity (E. coli strain ML2): significantly reduced cell growth; also recorded: at least slightly toxic | Greater fluorescence than 5SICSTP (sfGFP^151(AXC) [3]; YTP 25 μM): 6 fold | Greater fluorescence than FSICSTP (sfGFP^151(AXC) [3]; YTP 25 μM): 5 fold | Greater fluorescence than SICSTP (sfGFP^151(AXC) [3]; YTP 25 μM): 2 fold | Protein production (sfGFP^151(AXC) [3]; YTP 25 μM): significant quantities of pure protein | sfGFP fluorescence relative to control without YTP (sfGFP^151(AXC) [3]; YTP 250 μM, NaMTP 250 μM): little fluorescence
